Key:
Assay in all cases: KINOMEscan competition binding
[1] = target: ABL2 (human) (UniProt P42684)
[2] = target: BRAF (human) (UniProt P15056)
[3] = target: CDC42BPA (human) (UniProt Q5VT25)
[4] = target: CDK16 (human) (UniProt Q00536)
[5] = target: EPHA1 (human) (UniProt P21709)
[6] = target: EPHB2 (human) (UniProt P29323)
[7] = target: FES (human) (UniProt P07332)
[8] = target: FGFR3 (human), P22607 [G697C]
[9] = target: FLT3 (human), P36888 [D835Y]
[10] = target: FLT3 (human), P36888 [N841I]
[11] = target: FLT4 (human) (UniProt P35916)
[12] = target: GAK (human) (UniProt O14976)
[13] = target: GSK3A (human) (UniProt P49840)
Sequence of GSK3A (human) (P49840 whole entry, looked up): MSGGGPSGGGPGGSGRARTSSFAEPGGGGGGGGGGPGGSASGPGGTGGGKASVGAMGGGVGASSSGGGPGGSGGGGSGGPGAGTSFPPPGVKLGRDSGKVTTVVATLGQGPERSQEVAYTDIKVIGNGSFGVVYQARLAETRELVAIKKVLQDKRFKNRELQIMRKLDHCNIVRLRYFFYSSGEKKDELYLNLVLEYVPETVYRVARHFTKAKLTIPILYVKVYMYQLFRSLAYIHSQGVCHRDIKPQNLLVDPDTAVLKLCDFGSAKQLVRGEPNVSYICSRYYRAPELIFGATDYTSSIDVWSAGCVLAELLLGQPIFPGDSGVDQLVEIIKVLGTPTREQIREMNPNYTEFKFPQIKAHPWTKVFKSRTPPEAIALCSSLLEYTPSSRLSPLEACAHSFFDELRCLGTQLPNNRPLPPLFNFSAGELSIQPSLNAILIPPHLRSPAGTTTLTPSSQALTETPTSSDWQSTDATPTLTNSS

[14] = target: GSK3B (human) (UniProt P49841)
Sequence of GSK3B (human) (P49841 whole entry, looked up): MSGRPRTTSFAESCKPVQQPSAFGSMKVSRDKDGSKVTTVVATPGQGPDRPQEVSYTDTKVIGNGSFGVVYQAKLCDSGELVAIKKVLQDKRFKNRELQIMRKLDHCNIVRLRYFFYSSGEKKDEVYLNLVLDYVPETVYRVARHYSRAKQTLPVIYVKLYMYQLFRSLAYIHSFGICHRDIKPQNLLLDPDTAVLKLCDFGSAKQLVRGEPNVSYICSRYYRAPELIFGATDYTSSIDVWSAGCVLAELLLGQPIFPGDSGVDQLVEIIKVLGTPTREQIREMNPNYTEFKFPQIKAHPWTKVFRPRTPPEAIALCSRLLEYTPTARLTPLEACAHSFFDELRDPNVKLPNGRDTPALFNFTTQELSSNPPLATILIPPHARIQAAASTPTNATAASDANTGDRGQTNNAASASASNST

[15] = target: HIPK2 (human) (UniProt Q9H2X6)
[16] = target: HIPK4 (human) (UniProt Q8NE63)
[17] = target: INSRR (human) (UniProt P14616)
[18] = target: JAK1 JH2 pseudokinase (human) (UniProt P23458)
Sequence of JAK1 JH2 pseudokinase (human) (P23458 whole entry, looked up): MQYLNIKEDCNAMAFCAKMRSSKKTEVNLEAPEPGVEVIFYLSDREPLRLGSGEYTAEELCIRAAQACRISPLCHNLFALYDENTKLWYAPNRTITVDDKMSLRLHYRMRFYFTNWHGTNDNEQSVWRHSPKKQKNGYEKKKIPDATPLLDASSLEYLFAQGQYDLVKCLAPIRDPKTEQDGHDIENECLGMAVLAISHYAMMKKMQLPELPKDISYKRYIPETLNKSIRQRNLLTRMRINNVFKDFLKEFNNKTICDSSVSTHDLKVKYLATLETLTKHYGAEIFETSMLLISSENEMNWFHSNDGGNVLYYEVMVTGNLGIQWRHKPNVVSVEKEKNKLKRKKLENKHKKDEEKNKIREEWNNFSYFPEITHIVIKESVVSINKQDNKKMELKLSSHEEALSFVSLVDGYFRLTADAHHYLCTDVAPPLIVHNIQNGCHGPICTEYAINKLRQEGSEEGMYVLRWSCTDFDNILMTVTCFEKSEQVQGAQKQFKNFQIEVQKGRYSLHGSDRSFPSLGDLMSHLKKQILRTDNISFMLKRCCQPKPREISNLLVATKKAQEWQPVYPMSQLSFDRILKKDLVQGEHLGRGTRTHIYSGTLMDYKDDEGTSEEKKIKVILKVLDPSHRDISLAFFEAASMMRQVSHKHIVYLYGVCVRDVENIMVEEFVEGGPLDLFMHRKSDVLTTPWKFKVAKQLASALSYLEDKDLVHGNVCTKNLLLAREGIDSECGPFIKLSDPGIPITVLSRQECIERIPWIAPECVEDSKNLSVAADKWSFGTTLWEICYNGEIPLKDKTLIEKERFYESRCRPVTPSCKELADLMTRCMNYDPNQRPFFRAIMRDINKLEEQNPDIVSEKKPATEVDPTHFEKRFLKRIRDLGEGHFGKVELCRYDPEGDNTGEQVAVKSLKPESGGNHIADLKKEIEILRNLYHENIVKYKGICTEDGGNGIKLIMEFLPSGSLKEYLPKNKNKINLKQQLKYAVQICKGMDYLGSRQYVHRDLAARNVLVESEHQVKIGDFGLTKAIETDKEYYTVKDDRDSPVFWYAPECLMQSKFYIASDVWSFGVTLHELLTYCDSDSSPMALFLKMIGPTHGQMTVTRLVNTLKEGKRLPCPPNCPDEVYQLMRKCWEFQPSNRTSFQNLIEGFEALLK

[19] = target: JAK2 JH1 catalytic (human) (UniProt O60674)
[20] = target: MAP2K1 (human) (UniProt Q02750)
[21] = target: MAP3K3 (human) (UniProt Q99759)
[22] = target: MAP3K7 (human) (UniProt O43318)
Sequence of MAP3K7 (human) (O43318 whole entry, looked up): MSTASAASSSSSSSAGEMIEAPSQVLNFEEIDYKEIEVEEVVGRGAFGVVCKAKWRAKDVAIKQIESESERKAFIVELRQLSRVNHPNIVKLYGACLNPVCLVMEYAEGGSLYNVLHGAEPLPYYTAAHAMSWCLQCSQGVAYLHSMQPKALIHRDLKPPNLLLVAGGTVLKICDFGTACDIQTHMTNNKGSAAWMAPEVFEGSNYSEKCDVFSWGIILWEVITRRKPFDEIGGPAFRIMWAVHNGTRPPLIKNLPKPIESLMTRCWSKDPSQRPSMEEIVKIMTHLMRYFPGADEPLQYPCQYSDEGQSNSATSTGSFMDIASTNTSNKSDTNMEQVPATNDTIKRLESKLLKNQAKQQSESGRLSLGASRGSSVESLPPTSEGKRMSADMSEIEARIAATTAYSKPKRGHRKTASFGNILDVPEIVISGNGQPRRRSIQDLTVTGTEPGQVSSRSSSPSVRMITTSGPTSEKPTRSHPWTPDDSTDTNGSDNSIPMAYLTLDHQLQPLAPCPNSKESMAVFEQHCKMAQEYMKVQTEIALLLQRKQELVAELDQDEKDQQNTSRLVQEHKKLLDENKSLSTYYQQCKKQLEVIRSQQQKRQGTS

[23] = target: MAPK10 (human) (UniProt P53779)
[24] = target: MERTK (human) (UniProt Q12866)
[25] = target: MET (human), P08581 [Y1235D]
[26] = target: MKNK1 (human) (UniProt Q9BUB5)
[27] = target: NEK5 (human) (UniProt Q6P3R8)
[28] = target: PDGFRA (human) (UniProt P16234)
[29] = target: PIK3CA (human), P42336 [E542K]
[30] = target: PRKAA2 (human) (UniProt P54646)
[31] = target: PRKACA (human) (UniProt P17612)
[32] = target: PRKCD (human) (UniProt Q05655)
[33] = target: PRKD2 (human) (UniProt Q9BZL6)
[34] = target: RIPK2 (human) (UniProt O43353)
[35] = target: SRC (human) (UniProt P12931)
[36] = target: SYK (human) (UniProt P43405)
[37] = target: TIE1 (human) (UniProt P35590)
[38] = target: TXK (human) (UniProt P42681)
[39] = target: ULK3 (human) (UniProt Q6PHR2)
[40] = target: YSK4 (human) (UniProt Q56UN5)
Sequence of YSK4 (human) (Q56UN5 whole entry, looked up): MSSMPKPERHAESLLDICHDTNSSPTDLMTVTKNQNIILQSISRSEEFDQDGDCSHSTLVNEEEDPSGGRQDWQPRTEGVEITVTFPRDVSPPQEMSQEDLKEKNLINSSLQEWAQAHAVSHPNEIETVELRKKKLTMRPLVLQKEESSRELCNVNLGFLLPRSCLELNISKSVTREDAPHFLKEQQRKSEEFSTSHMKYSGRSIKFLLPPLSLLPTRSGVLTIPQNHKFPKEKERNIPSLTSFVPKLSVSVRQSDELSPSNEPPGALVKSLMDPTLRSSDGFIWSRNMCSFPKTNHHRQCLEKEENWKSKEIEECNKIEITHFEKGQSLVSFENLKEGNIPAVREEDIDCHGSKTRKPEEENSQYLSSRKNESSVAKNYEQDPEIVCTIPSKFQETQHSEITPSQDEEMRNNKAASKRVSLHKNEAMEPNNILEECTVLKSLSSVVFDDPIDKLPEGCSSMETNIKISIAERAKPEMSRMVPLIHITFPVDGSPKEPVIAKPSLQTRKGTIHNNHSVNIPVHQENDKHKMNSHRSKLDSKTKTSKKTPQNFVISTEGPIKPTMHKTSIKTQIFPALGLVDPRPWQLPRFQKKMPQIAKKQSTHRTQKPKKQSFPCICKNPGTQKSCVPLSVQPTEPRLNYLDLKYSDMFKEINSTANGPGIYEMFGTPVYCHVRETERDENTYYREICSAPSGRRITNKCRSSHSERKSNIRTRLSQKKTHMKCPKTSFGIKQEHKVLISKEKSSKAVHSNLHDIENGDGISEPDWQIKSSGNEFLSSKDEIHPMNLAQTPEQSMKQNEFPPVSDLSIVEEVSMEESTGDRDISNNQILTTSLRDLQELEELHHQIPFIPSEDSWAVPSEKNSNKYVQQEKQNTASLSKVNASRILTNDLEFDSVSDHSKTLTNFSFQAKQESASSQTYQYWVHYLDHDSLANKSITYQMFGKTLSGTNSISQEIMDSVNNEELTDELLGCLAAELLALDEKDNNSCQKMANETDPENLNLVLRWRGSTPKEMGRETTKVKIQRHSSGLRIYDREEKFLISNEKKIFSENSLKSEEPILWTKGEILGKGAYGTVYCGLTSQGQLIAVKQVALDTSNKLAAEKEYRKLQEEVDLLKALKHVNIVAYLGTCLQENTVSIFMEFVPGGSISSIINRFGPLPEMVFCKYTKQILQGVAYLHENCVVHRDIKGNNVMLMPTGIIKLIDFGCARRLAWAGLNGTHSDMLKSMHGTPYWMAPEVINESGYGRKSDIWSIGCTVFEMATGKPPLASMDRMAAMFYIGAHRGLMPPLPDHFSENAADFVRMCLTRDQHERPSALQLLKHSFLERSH

Sequence of FGFR3 (human), P22607 [G697C] (P22607 whole entry G697C, looked up): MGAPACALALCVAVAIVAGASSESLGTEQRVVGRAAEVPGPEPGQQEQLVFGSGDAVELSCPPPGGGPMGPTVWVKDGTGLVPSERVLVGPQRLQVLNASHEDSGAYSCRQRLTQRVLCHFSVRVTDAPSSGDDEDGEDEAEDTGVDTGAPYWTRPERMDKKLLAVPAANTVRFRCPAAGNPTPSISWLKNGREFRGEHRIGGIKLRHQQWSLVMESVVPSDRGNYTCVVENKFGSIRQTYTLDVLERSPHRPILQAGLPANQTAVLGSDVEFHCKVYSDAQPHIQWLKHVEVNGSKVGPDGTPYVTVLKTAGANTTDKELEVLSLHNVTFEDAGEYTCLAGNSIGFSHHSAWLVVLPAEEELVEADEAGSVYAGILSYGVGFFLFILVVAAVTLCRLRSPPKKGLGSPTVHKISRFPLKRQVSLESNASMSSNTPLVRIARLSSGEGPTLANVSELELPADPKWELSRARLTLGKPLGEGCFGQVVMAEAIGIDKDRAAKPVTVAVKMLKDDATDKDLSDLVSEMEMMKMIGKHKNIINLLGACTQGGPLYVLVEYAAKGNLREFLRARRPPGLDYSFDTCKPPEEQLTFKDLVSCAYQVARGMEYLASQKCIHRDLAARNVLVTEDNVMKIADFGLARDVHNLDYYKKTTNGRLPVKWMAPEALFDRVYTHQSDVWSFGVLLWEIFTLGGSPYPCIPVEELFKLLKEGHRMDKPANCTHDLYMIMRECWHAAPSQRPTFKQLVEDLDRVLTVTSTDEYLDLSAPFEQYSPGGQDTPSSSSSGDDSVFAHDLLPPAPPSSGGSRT

Kd [1]: 14 nM
Kd [2]: 36 nM
Kd [3]: 30000 nM
Kd [4]: 1600 nM
Kd [5]: 140 nM
Kd [6]: 40 nM
Kd [7]: 110 nM
Kd [8]: 3100 nM
Kd [9]: 230 nM
Kd [10]: 20 nM
Kd [11]: 9.3 nM
Kd [12]: 2300 nM
Kd [13]: 6000 nM
Kd [14]: 29000 nM
Kd [15]: 1000 nM
Kd [16]: 34 nM
Kd [17]: 31000 nM
Kd [18]: 33000 nM
Kd [19]: 14000 nM
Kd [20]: 7100 nM
Kd [21]: 11000 nM
Kd [22]: 83 nM
Kd [23]: 88 nM
Kd [24]: 1300 nM
Kd [25]: 260 nM
Kd [26]: 2600 nM
Kd [27]: 28000 nM
Kd [28]: 5.4 nM
Kd [29]: 27000 nM
Kd [30]: 28000 nM
Kd [31]: 13000 nM
Kd [32]: 1200 nM
Kd [33]: 19000 nM
Kd [34]: 16 nM
Kd [35]: 99 nM
Kd [36]: 260 nM
Kd [37]: 24 nM
Kd [38]: 190 nM
Kd [39]: 13000 nM
Kd [40]: 3.7 nM
Compound: COc1cc2ncnc(Oc3cccc(NC(=O)Nc4cc(C(C)(C)C(F)(F)F)on4)c3)c2cc1OC

From the kinase profiling compilation of Christmann-Franck et al. (2016)
